# Assay results taken from PubChem BioAssay (NCI).
# Values joined by “and” are separate entries in the source; they are usually repeats but may differ in a detail not shown here. Equal values may be shown once.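 Each compound was tested at five concentrations against cells in 96-well plates for 48 hours. Abbreviation: GI50, concentration required for 50% inhibition of growth. The concentration for full growth arrest is given as TGI.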
# Tests used:
# Test in all cases: DTP human tumour cell line panel, 48 h
# 786-0 renal = test system: 786-0 renal
# A498 renal = test system: A498 renal
# A549 NSCLC = test system: A549 NSCLC
# ACHN renal = test system: ACHN renal
# CAKI-1 renal = test system: CAKI-1 renal
# CCRF-CEM leukemia = test system: CCRF-CEM leukemia
# COLO 205 colon = test system: COLO 205 colon
# DLD-1 colon = test system: DLD-1 colon
# DMS 114 small cell lung = test system: DMS 114 small cell lung
# DMS 273 small cell lung = test system: DMS 273 small cell lung
# EKVX NSCLC = test system: EKVX NSCLC
# HCC-2998 colon = test system: HCC-2998 colon
# HCT-116 colon = test system: HCT-116 colon
# HCT-15 colon = test system: HCT-15 colon
# HL-60(TB) leukemia = test system: HL-60(TB) leukemia
# HOP-62 NSCLC = test system: HOP-62 NSCLC
# HT29 colon = test system: HT29 colon
# IGROV1 ovarian = test system: IGROV1 ovarian
# K-562 leukemia = test system: K-562 leukemia
# KM12 colon = test system: KM12 colon
# KM20L2 colon = test system: KM20L2 colon
# LOX IMVI melanoma = test system: LOX IMVI melanoma
# LXFL 529 NSCLC = test system: LXFL 529 NSCLC
# M14 melanoma = test system: M14 melanoma
# M19-MEL melanoma = test system: M19-MEL melanoma
# MALME-3M melanoma = test system: MALME-3M melanoma
# MOLT-4 leukemia = test system: MOLT-4 leukemia
# NCI-H226 lung = test system: NCI-H226 lung
# NCI-H23 lung = test system: NCI-H23 lung
# NCI-H460 lung = test system: NCI-H460 lung
# NCI-H522 lung = test system: NCI-H522 lung
# OVCAR-3 ovarian = test system: OVCAR-3 ovarian
# OVCAR-4 ovarian = test system: OVCAR-4 ovarian
# OVCAR-5 ovarian = test system: OVCAR-5 ovarian
# OVCAR-8 ovarian = test system: OVCAR-8 ovarian
# RPMI-8226 leukemia = test system: RPMI-8226 leukemia
# RXF 393 renal = test system: RXF 393 renal
# SF-268 CNS = test system: SF-268 CNS
# SF-295 CNS = test system: SF-295 CNS
# SK-MEL-2 melanoma = test system: SK-MEL-2 melanoma
# SK-MEL-28 melanoma = test system: SK-MEL-28 melanoma
# SK-MEL-5 melanoma = test system: SK-MEL-5 melanoma
# SK-OV-3 ovarian = test system: SK-OV-3 ovarian
# SN12C renal = test system: SN12C renal
# SNB-19 CNS = test system: SNB-19 CNS
# SNB-75 CNS = test system: SNB-75 CNS
# SR leukemia = test system: SR leukemia
# SW-620 colon = test system: SW-620 colon
# TK-10 renal = test system: TK-10 renal
# U251 CNS = test system: U251 CNS
# UACC-257 melanoma = test system: UACC-257 melanoma
# UACC-62 melanoma = test system: UACC-62 melanoma
# UO-31 renal = test system: UO-31 renal
# XF 498 CNS = test system: XF 498 CNS
# HOP-18 NSCLC = test system: HOP-18 NSCLC
# HOP-92 NSCLC = test system: HOP-92 NSCLC
# SF-539 CNS = test system: SF-539 CNS
# SNB-78 CNS = test system: SNB-78 CNS
compound,measurement,setting,value
Cc1cn(C2CC(CCCO)C(CO)O2)c(=O)[nH]c1=O (stereo unspecified),TGI,786-0 renal,> 100 µM
same,TGI,A498 renal,> 100 µM
same,TGI,A549 NSCLC,> 100 µM
same,TGI,ACHN renal,> 100 µM
same,TGI,CAKI-1 renal,> 100 µM
same,GI50,CCRF-CEM leukemia,> 100 µM
same,TGI,CCRF-CEM leukemia,> 100 µM
same,TGI,COLO 205 colon,> 100 µM
same,TGI,DLD-1 colon,> 100 µM
same,TGI,DMS 114 small cell lung,> 100 µM
same,TGI,DMS 273 small cell lung,> 100 µM
same,TGI,EKVX NSCLC,> 100 µM
same,TGI,HCC-2998 colon,> 100 µM
same,TGI,HCT-116 colon,> 100 µM
same,TGI,HCT-15 colon,> 100 µM
same,TGI,HL-60(TB) leukemia,> 100 µM
same,TGI,HOP-62 NSCLC,> 100 µM
same,TGI,HT29 colon,> 100 µM
same,TGI,IGROV1 ovarian,> 100 µM
same,TGI,K-562 leukemia,> 100 µM
same,TGI,KM12 colon,> 100 µM
same,TGI,KM20L2 colon,> 100 µM
same,TGI,LOX IMVI melanoma,> 100 µM
same,TGI,LXFL 529 NSCLC,> 100 µM
same,TGI,M14 melanoma,> 100 µM
same,TGI,M19-MEL melanoma,> 100 µM
same,TGI,MALME-3M melanoma,> 100 µM
same,GI50,MOLT-4 leukemia,> 100 µM
same,TGI,MOLT-4 leukemia,> 100 µM
same,GI50,NCI-H226 lung,> 100 µM and 18.4 µM
same,TGI,NCI-H226 lung,> 100 µM
same,TGI,NCI-H23 lung,> 100 µM
same,TGI,NCI-H460 lung,> 100 µM
same,TGI,NCI-H522 lung,> 100 µM
same,TGI,OVCAR-3 ovarian,> 100 µM
same,TGI,OVCAR-4 ovarian,> 100 µM
same,TGI,OVCAR-5 ovarian,> 100 µM
same,TGI,OVCAR-8 ovarian,> 100 µM
same,TGI,RPMI-8226 leukemia,> 100 µM
same,TGI,RXF 393 renal,> 100 µM
same,TGI,SF-268 CNS,> 100 µM
same,TGI,SF-295 CNS,> 100 µM
same,TGI,SK-MEL-2 melanoma,> 100 µM
same,TGI,SK-MEL-28 melanoma,> 100 µM
same,TGI,SK-MEL-5 melanoma,> 100 µM
same,TGI,SK-OV-3 ovarian,> 100 µM
same,TGI,SN12C renal,> 100 µM
same,TGI,SNB-19 CNS,> 100 µM
same,GI50,SNB-75 CNS,> 100 µM and 30.5 µM
same,TGI,SNB-75 CNS,> 100 µM
same,TGI,SR leukemia,> 100 µM
same,TGI,SW-620 colon,> 100 µM
same,TGI,TK-10 renal,> 100 µM
same,TGI,U251 CNS,> 100 µM
same,TGI,UACC-257 melanoma,> 100 µM
same,TGI,UACC-62 melanoma,> 100 µM
same,TGI,UO-31 renal,> 100 µM
same,TGI,XF 498 CNS,> 100 µM
Cc1cc(C)nc(/C(=N\NC(N)=O)C(=O)Nc2nc3ccc(C)cc3s2)c1,TGI,786-0 renal,> 100 µM
same,TGI,A498 renal,> 100 µM
same,TGI,A549 NSCLC,> 100 µM
same,TGI,ACHN renal,> 100 µM
same,TGI,CAKI-1 renal,> 100 µM
same,TGI,CCRF-CEM leukemia,> 77.8 µM
same,TGI,COLO 205 colon,> 73.5 µM
same,TGI,DLD-1 colon,> 100 µM
same,TGI,DMS 114 small cell lung,> 81.9 µM
same,TGI,DMS 273 small cell lung,> 93.5 µM
same,TGI,EKVX NSCLC,> 100 µM
same,TGI,HCC-2998 colon,> 100 µM
same,TGI,HCT-116 colon,> 100 µM
same,TGI,HCT-15 colon,> 100 µM
same,TGI,HL-60(TB) leukemia,> 100 µM
same,TGI,HOP-18 NSCLC,> 100 µM
same,TGI,HOP-62 NSCLC,> 100 µM
same,TGI,HOP-92 NSCLC,> 100 µM
same,TGI,HT29 colon,> 100 µM
same,TGI,IGROV1 ovarian,> 100 µM
same,TGI,K-562 leukemia,> 100 µM
same,TGI,KM12 colon,> 100 µM
same,TGI,KM20L2 colon,> 100 µM
same,TGI,LOX IMVI melanoma,> 70.5 µM
same,TGI,LXFL 529 NSCLC,> 100 µM
same,TGI,M14 melanoma,> 100 µM
same,TGI,M19-MEL melanoma,> 100 µM
same,TGI,MALME-3M melanoma,> 100 µM
same,TGI,MOLT-4 leukemia,> 100 µM
same,TGI,NCI-H226 lung,> 100 µM
same,TGI,NCI-H23 lung,> 100 µM
same,TGI,NCI-H460 lung,> 100 µM
same,TGI,NCI-H522 lung,> 100 µM
same,TGI,OVCAR-3 ovarian,> 100 µM
same,TGI,OVCAR-4 ovarian,> 100 µM
same,TGI,OVCAR-5 ovarian,> 100 µM
same,TGI,OVCAR-8 ovarian,> 100 µM
same,TGI,RPMI-8226 leukemia,> 69.6 µM
same,TGI,RXF 393 renal,> 100 µM
same,TGI,SF-268 CNS,> 100 µM
same,TGI,SF-295 CNS,> 100 µM
same,TGI,SF-539 CNS,> 100 µM
same,TGI,SK-MEL-2 melanoma,> 100 µM
same,TGI,SK-MEL-28 melanoma,> 100 µM
same,TGI,SK-MEL-5 melanoma,> 100 µM
same,TGI,SK-OV-3 ovarian,> 100 µM
same,TGI,SN12C renal,> 100 µM
same,TGI,SNB-19 CNS,> 100 µM
same,TGI,SNB-75 CNS,> 100 µM
same,TGI,SNB-78 CNS,> 100 µM
same,TGI,SR leukemia,40.7 µM
same,TGI,SW-620 colon,> 100 µM
same,TGI,TK-10 renal,> 100 µM
same,TGI,U251 CNS,> 100 µM
same,TGI,UACC-257 melanoma,> 100 µM
same,TGI,UACC-62 melanoma,> 100 µM
same,TGI,UO-31 renal,> 100 µM
same,TGI,XF 498 CNS,> 100 µM
